This is an account of results in patent US20030170218A1, “Fungicide and method for producing the same” (Biobank Co., Ltd., priority 2002, published 2003).

One series deals with Trichophyton rubrum. In words: Agar dilution method, colony growth on sample plate. The series is classed as cell-based. Particulars: T. rubrum, 28° C., 12 days; for Diameter of the colony: 2 mL sample + 18 mL Sabourand agar medium, 5 mm colony disk; for Antifungal activity: 100-[(x-5)/(y-5)x100] vs standard plate, 2 mL sample + 18 mL medium.
Series [1] deals with Trichophyton mentagrophytes. Described as above. Format: cell-based. To be noted: T. mentagrophytes, 28° C., 12 days; for Diameter of the colony: 2 mL sample + 18 mL Sabourand agar medium, 5 mm colony disk; for Antifungal activity: 100-[(x-5)/(y-5)x100] vs standard plate, 2 mL sample + 18 mL medium.
The nature of the next series: pH measurement. Format: physicochemical. Particulars: sample plate: 2 mL sample + 18 mL Sabourand agar medium.
A further series deals with Rosellinia necatrix. Put plainly: Agar dilution method on potato dextrose agar. Format: cell-based. Particulars: 2 mL sample + 18 mL potato dextrose agar.
The subject of the next series is Helicobasidium mompa. In words: Agar dilution method on potato dextrose agar. Format: cell-based. To be noted: 2 mL sample + 18 mL potato dextrose agar.
Another series relates to Fusarium oxysporum. Put plainly: Agar dilution method on potato dextrose agar. Format: cell-based. To be noted: 2 mL sample + 18 mL potato dextrose agar.
The test system of the next series is Pythium graminicola. In words: Agar dilution method on potato dextrose agar. Particulars: 2 mL sample + 18 mL potato dextrose agar. The series is classed as cell-based.
Series [2] relates to enterohemorrhagic E. coli O-157. Particulars: Japanese Patent Laid-Open No. 300284/2000; cited from earlier work.

Take `O=C([O-])c1ccccc1C(=O)O.[K+]` [Comp. Ex. 2, potassium hydrogen phthalate]: in the series on Trichophyton rubrum, the “Diameter of the colony” value is 21.0 ± 1.5 mm and the Antifungal activity is given as 58%. Moreover, in series [1], the “Diameter of the colony” value was found to be 51.1 ± 2.4 mm and the Antifungal activity came out at 6%.

In the case of `O=C(O)CC(O)(CC(=O)O)C(=O)O` [Comp. Ex. 3, citric acid], in the series on Trichophyton rubrum, the “Diameter of the colony” value is given as 26.5 ± 1.5 mm and the Antifungal activity is reported as 44%. Further, in series [1], the “Diameter of the colony” value is on record as 14.8 ± 0.7 mm and the Antifungal activity was 80%.

As for `O=C(O)C(=O)O` [Comp. Ex. 5, oxalic acid], in the series on Trichophyton rubrum, the “Diameter of the colony” value was found to be 36.5 ± 1.1 mm and the Antifungal activity came out at 18%. Besides, in series [1], the “Diameter of the colony” value is reported as 17.6 ± 0.1 mm and the Antifungal activity is listed as 74%. Besides, in “pH measurement”, the “PH of the Medium” value turned out to be 4.30.

For the compound `O=C(O)CC(=O)O` [Comp. Ex. 6, malonic acid], the “Diameter of the colony” value (in the series with Trichophyton rubrum; in series [1]) was 5.5 ± 0.0 mm each time. The Antifungal activity (in the series with Trichophyton rubrum; in series [1]) was 99% throughout. The “PH of the Medium” value in the series “pH measurement” is 2.91.

For `CC(O)C(=O)O` (stereo not shown) [Comp. Ex. 7, lactic acid], the “Diameter of the colony” value in the series with Trichophyton rubrum was 18.0 ± 5.0 mm; in series [1], 17.7 ± 1.4 mm. Also, the Antifungal activity is 66% in the series on Trichophyton rubrum and 74% in series [1]. Moreover, in the series “pH measurement”, the “PH of the Medium” value was 3.46.

Turning to `CC(=O)O` [Comp. Ex. 8, acetic acid], in the series on Trichophyton rubrum, the “Diameter of the colony” value stood at 5.4 ± 0.3 mm and the Antifungal activity came out at 99%. In series [1], the “Diameter of the colony” value is recorded as 5.7 ± 0.3 mm and the Antifungal activity came to 99%. Also, in “pH measurement”, the “PH of the Medium” value is given as 4.12.

`O=C([O-])c1ccccc1C(=O)O.[K+]` [Comparative Example 12, potassium hydrogen phthalate]: the “Diameter of the colony” value was 70.3 ± 0.0 mm with Rosellinia necatrix ([…]), 8.1 ± 0.7 mm in the series with Helicobasidium mompa ([…]), 54.1 ± 4.1 mm with Fusarium oxysporum ([…]) and 13.1 ± 0.6 mm in the series with Pythium graminicola ([…]). Also, the Antifungal activity in the series on Rosellinia necatrix (vs standard plate) was 5%; in the series on Helicobasidium mompa (vs standard plate) it was 95%; in the series on Fusarium oxysporum (vs standard plate), 5%; in the series on Pythium graminicola (vs standard plate) it was 88%.

`O=C(O)C(O)Cc1ccccc1` (stereo not shown) [phenyllactic acid]: the antibacterial activity entry in series [2] is recorded as “strong antibacterial activity”.
